Reference: patent US20140066498A1, “TRITERPENOID DERIVATIVES, BENZENOID DERIVATIVES, AND PHARMACEUTICAL COMPOSITIONS CONTAINING THE SAME” (National Cheng Kung University, priority 2010, published 2014)
≈ marks a conversion by molar mass, not a printed value. Like-named read-outs stand apart in the source and are kept apart here.

Legend:
[1] = molecular target: T1, nitric oxide synthase (NOS) (Mus musculus, UniProt P29477); assay: NOS activity: LPS-induced NO production in murine microglial cells (BV2)
T1 sequence (P29477 1-1144): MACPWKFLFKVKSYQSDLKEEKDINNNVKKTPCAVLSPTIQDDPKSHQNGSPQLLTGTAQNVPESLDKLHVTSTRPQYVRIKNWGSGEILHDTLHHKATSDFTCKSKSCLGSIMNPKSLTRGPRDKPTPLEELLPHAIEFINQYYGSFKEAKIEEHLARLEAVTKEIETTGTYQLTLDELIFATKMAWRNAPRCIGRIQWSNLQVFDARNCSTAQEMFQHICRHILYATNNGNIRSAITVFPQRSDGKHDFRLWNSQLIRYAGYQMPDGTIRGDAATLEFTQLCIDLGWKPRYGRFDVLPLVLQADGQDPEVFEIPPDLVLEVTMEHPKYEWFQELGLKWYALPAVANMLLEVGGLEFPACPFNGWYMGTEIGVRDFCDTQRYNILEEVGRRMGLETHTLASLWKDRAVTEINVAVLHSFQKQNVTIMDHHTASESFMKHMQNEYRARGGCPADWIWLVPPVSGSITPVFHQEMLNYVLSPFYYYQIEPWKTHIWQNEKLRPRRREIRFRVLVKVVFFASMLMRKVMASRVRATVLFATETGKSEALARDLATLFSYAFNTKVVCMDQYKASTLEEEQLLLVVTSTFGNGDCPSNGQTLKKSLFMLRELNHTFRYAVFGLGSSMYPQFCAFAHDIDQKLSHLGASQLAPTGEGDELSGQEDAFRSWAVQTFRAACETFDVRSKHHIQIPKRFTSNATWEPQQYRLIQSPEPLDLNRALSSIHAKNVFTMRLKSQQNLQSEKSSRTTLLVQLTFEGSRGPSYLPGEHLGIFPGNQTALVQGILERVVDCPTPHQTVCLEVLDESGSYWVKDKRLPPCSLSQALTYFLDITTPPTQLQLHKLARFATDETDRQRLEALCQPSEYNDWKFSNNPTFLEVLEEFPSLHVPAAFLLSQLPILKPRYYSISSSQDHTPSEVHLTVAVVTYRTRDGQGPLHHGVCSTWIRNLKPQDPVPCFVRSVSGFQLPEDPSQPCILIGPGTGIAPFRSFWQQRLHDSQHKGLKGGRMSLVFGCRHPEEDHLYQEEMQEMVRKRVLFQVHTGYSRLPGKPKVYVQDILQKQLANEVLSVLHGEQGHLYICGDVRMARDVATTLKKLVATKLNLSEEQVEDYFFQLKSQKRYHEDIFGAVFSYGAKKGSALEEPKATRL
Procedure: Microglial cell culture and measurements of mitric oxide (NO). The murine microglial cell line (BV2) was cultured, and the production of NO was measured by the methods as previously described (Wang, Y. H.; Wang, W. Y.; Chang, C. C.; Liou, K. T.; Sung, Y. J.; Liao, J. F.; Chen, C. F.; Chang, S.; Hou, Y. C.; Chou, Y. C.; Shen, Y. C. J. Biomed. Sci. 2006, 13, 127-141).

[2] = tested on: KB-VIN (multidrug-resistant strain); assay: Cytotoxicity assay against KB-VIN cells in vitro; type: cell-based, human
[3] = tested on: MCF-7 (human breast adenocarcinoma); assay: MTT cytotoxicity assay, MCF-7; type: cell-based; settings: MCF-7 cell line
Procedure: (§1) Compounds II-7-II-9, II-13, II-14, II-20, II-21, II-25-II-33, and II-36 were assayed for cytotoxic activity against Doay (human medulloblastoma), Hep2 (human laryngeal carcinoma), MCF-7 (human breast adenocarcinoma), and Hela (human cervical epitheloid carcinoma) cell lines, using a MTT assay method.

[4] = tested on: Daoy (human medulloblastoma); assay: MTT cytotoxicity assay, Daoy; type: cell-based; settings: Daoy cell line
Procedure: as §1

KB (human cancer cell) = assay: Cytotoxicity assay against KB cells in vitro; type: cell-based; settings: NA@20 given for inactive
[5] = tested on: Hep2 (human laryngeal carcinoma); assay: MTT cytotoxicity assay, Hep2; type: cell-based; settings: Hep2 cell line
Procedure: as §1

[6] = tested on: Hela (human cervical epitheloid carcinoma); assay: MTT cytotoxicity assay, Hela; type: cell-based; settings: Hela cell line
Procedure: as §1

NADPH oxidase (NOX) [7] = molecular target: NADPH oxidase (NOX) (Homo sapiens, UniProt P04839); type: cell-based; settings: ROS production triggered with fMLP (2 μM), 1-50 μM test drug, peripheral human neutrophils; mean ± S.E.M.; read-out: IC50 (μM) in NOX fMLP-induced NOX activation in PMN
NADPH oxidase (NOX) [8] = molecular target: NADPH oxidase (NOX) (Mus musculus, UniProt Q61093); type: biochemical, murine; settings: ROS production triggered with NADPH (200 μM), 1-50 μM test drug, BV2 cell lysate; mean ± S.E.M., 3-6 experiments; read-out: IC50 (μM) in NOX activity from BV2 cell lysate
[9] = read-out: IC50 (μM) in NOS, LPS-induced NO production in BV2 cells, 1-50 μM test drug, mean ± S.E.M.

C=C(CC[C@@H](C)C1CCC2C3=C(C(=O)C[C@@]21C)[C@@]1(C)CCC(O)[C@@H](C)C1CC3O)C(C)C(=O)O (stereo in doubt) [Compound I-2, 3α,7β-dihydroxy-11-oxo-4α-methylergosta-8,24(28)-dien-26-oic acid]
IC50 [1]: 15.7 ± 0.9 µM | EC50 (μM) KB-VIN [2]: NA@20

C=C(CC[C@@H](C)C1CCC2C3=C(C(=O)C[C@@]21C)[C@@]1(C)CCC(O)[C@@H](C)C1CC3=O)C(C)C(=O)OC (stereo in doubt) [Compound I-5, methyl-3α-hydroxy-7,11-dioxo-4α-methylergosta-8,24(28)-dien-26-oate]
ED50 (μg/mL) MCF-7 [3]: 6.6 µg/mL (≈ 13.6 µM) | ED50 (μg/mL) Daoy [4]: 5.2 µg/mL (≈ 10.7 µM) | EC50 (KB (human cancer cell); Homo sapiens): 0.45 µM | ED50 (μg/mL) Hep2 [5]: 7.0 µg/mL (≈ 14.4 µM) | ED50 (μg/mL) Hela [6]: 9.0 µg/mL (≈ 18.6 µM) | EC50 ([2]; Homo sapiens, KBVIN): 2.7 µM

C=C(CC[C@@H](C)C1CCC2C3=C(C(=O)C[C@@]21C)[C@@]1(C)CCC(=O)[C@@H](C)C1CC3O)C(C)C(=O)OC (stereo in doubt) [Compound I-6, methyl-7β-hydroxy-3,11-dioxo-4α-methylergosta-8,24(28)-dien-26-oate]
ED50 (μg/mL) MCF-7 [3]: 7.9 µg/mL (≈ 16.3 µM) | melting point: 100 to 101 °C | ED50 (μg/mL) Daoy [4]: 4.4 µg/mL (≈ 9.08 µM) | EC50 (KB (human cancer cell); Homo sapiens): 2 µM | ED50 (μg/mL) Hep2 [5]: 3.0 µg/mL (≈ 6.19 µM) | ED50 (μg/mL) Hela [6]: 8.9 µg/mL (≈ 18.4 µM) | IC50 [1]: 2.5 µM | EC50 ([2]; Homo sapiens, KBVIN): 2.9 µM

C=C(CC[C@@H](C)C1CCC2C3=C(C(=O)C[C@@]21C)[C@@]1(C)CCC(=O)[C@@H](C)C1CC3O)C(C)C(=O)O (stereo in doubt) [Compound I-7, 7α-hydroxy-3,11-dioxo-4α-methylergosta-8,24(28)-dien-26-oic acid]
EC50 (KB (human cancer cell); Homo sapiens): 15 µM | EC50 ([2]; Homo sapiens, KBVIN): 17.5 µM

C=C(CC[C@@H](C)C1CCC2C3=C(C(=O)[C@H](O)[C@@]21C)[C@@]1(C)CC[C@@H](O)[C@@H](C)C1C[C@H]3O)C(C)C(=O)O (stereo partly drawn) [Compound I-1, 3α,7β,11α-trihydroxy-11-oxo-4α-methylergosta-8,24(28)-dien-26-oic acid]
melting point: 117 to 119 °C | EC50 (μM) KB (KB (human cancer cell)): NA@20 | EC50 (μM) KB-VIN [2]: NA@20

C=C(CC[C@@H](C)C1CCC2C3=C(C(=O)C[C@@]21C)[C@@]1(C)CC[C@@H](O)[C@](C)(O)C1CC3=O)C(C)C(=O)O (stereo partly drawn) [Compound I-3, 3α,4β-dihydroxy-7,11-dioxo-4α-methylergosta-8,24(28)-dien-26-oic acid]
melting point: 186 to 188 °C | EC50 (KB (human cancer cell); Homo sapiens): 0.3 µM | EC50 ([2]; Homo sapiens, KBVIN): 2.3 µM

C=C(CC[C@@H](C)[C@H]1CC[C@@]2(O)C3=C(C(=O)C[C@]12C)[C@@]1(C)CCC(=O)[C@@H](C)C1C[C@@H]3O)C(C)C(=O)O (stereo partly drawn) [Compound I-4, 7β,14α-dihydroxy-3,11-dioxo-4α-methylergosta-8,24(28)-dien-26-oic acid]
melting point: 175 to 177 °C | EC50 (KB (human cancer cell); Homo sapiens): 1 µM | EC50 ([2]; Homo sapiens, KBVIN): 1.4 µM

C=C(CC[C@@H](C)[C@H]1CC[C@H]2C3=C(C(=O)C[C@]12C)[C@@]1(C)CCC(=O)[C@@H](C)C1CC3)C(C)C (stereo partly drawn) [Compound I-8, 4α-methylergosta-8,24(28)-dien-3,11-dione]
EC50 (μM) KB (KB (human cancer cell)): NA@20 | EC50 (μM) KB-VIN [2]: NA@20

C[C@H](C=C[C@H](C)[C@H](C)CO)[C@H]1CC[C@H]2C3=CCC4CC(=O)CC[C@]4(C)[C@H]3CC[C@]12C (stereo partly drawn) [Compound I-9, (25S)-26-hydroxy-ergosta-7,22-dien-3-one]
melting point: 192 to 193 °C | EC50 (μM) KB (KB (human cancer cell)): NA@20 | IC50 [1]: 12.7 ± 2.2 µM | EC50 (μM) KB-VIN [2]: NA@20

C=C(CC[C@@H](C)[C@H]1CC[C@@H]2C3=C(C(=O)C[C@@]21C)[C@@]1(C)CCC(=O)[C@@H](C)C1CC3)C(C)C(=O)OC (stereo partly drawn) [Compound I-10, methyl-3,11-dioxo-4α-methyl-14β-ergosta-8,24(28)-dien-26-oate]
ED50 (μg/mL) MCF-7 [3]: 8.7 µg/mL (≈ 18.6 µM) | melting point: 100 to 102 °C | ED50 (μg/mL) Daoy [4]: —^a (ED50 > 20 μg/mL) | EC50 (μM) KB (KB (human cancer cell)): NA@20 | ED50 (μg/mL) Hep2 [5]: — (ED50 > 20 μg/mL) | ED50 (μg/mL) Hela [6]: 11.3 µg/mL (≈ 24.1 µM) | IC50 [1]: 1.6 µM | EC50 (μM) KB-VIN [2]: NA@20

C=C(CC[C@@H](C)[C@H]1CC[C@H]2C3=C(C(=O)C[C@]12C)[C@@]1(C)CCC(=O)[C@@H](C)[C@@H]1CC3=O)C(C)C(=O)O (stereo partly shown) [Compound I-11, zhankuic acid A]
ED50 (μg/mL) MCF-7 [3]: — (ED50 > 20 μg/mL) | ED50 (μg/mL) Daoy [4]: — (ED50 > 20 μg/mL) | IC50 (NADPH oxidase (NOX) [7]): 22.1 ± 6.7 µM | EC50 (KB (human cancer cell)): 3 µM | ED50 (μg/mL) Hep2 [5]: 16.6 µg/mL (≈ 35.4 µM) | ED50 (μg/mL) Hela [6]: — (ED50 > 20 μg/mL) | IC50 [1, 9]: 3.6 µM | EC50 [2]: 6.2 µM

C=C(CC[C@@H](C)[C@H]1CC[C@H]2C3=C(C(=O)C[C@]12C)[C@@]1(C)CC[C@@H](O)[C@@H](C)[C@@H]1CC3=O)C(C)C(=O)O (stereo partly shown) [Compound I-12, zhankuic acid B]
EC50 (KB (human cancer cell)): 7.3 µM | IC50 [1, 9]: 9.6 ± 0.7 µM | EC50 [2]: 8.5 µM

C=C(CC[C@@H](C)[C@H]1CC[C@H]2C3=C(C(=O)C[C@]12C)[C@@]1(C)CCC(=O)[C@@H](C)[C@@H]1CC3=O)C(C)C(=O)OC (stereo partly shown) [Compound I-14, zhankuic acid A methyl ester]
IC50 (NADPH oxidase (NOX) [7]): 8.4 ± 2.1 µM | EC50 (KB (human cancer cell)): > 20 µM | IC50 [1, 9]: 0.6 µM | EC50 [2]: > 20 µM

C=C(CC[C@@H](C)[C@H]1CC[C@H]2C3=C(C(=O)C[C@]12C)[C@@]1(C)CCC(=O)[C@@H](C)[C@@H]1C[C@@H]3O)[C@H](C)C(=O)O [Compound I-16, antcin C]
IC50 (NADPH oxidase (NOX) [7]): 22.6 ± 3.3 µM | EC50 (μM) KB (KB (human cancer cell)): NA@20 | IC50 [1, 9]: 4.2 µM | EC50 (μM) KB-VIN [2]: NA@20

C=C(CC[C@@H](C)[C@H]1CC[C@H]2C3=C(C(=O)C[C@]12C)[C@@]1(C)CC[C@@H](O)[C@](C)(O)[C@@H]1C[C@@H]3O)C(C)C(=O)O (stereo partly shown) [Compound I-17, antcin K]
IC50 (NADPH oxidase (NOX) [7]): 47.2 ± 8.4 µM | EC50 (μM) KB (KB (human cancer cell)): NA@20 | EC50 (μM) KB-VIN [2]: NA@20

CC(C)[C@@H](C)/C=C/[C@@H](C)[C@H]1CC[C@H]2C3=CC[C@H]4C[C@@H](O)CC[C@]4(C)C3=CC[C@]12C [Compound I-20, ergosterol D]
IC50 (NADPH oxidase (NOX) [7]): 27.9 ± 5.6 µM | IC50 [1, 9]: 30.6 ± 0.8 µM

C=C(CC[C@@H](C)[C@H]1CC[C@H]2C3=C(C(=O)C[C@]12C)[C@@]1(C)CCC(=O)[C@@H](C)C1CC3)C(C)C(=O)OC (stereo partly drawn) [Compound I-21, methyl 4α-methylergost-8,24(28)-dien-3,11-dion-26-oate]
IC50 [1]: 1.5 µM

CC(C)[C@@H](C)/C=C/[C@@H](C)[C@H]1CC[C@@H]2[C@]1(C)CC[C@H]1[C@]23C=C[C@]2(C[C@@H](O)CC[C@]12C)OO3 [Compound I-22, ergosterol peroxide]
IC50 [1, 9]: 6.3 ± 1.8 µM

c1ccc2c(c1)[I+]c1ccccc1-2 [DPI, Diphenyleneiodonium, reference compound]
IC50 (NADPH oxidase (NOX) [8]): 0.4 µM

C=C(C)C#Cc1c(C)c(OC)c(OC)c2c1OCO2 [II-2]
IC50 [1, 9]: 12.1 µM

COc1c(C)c(-c2c(C)c(OC)c3c(c2OC)OCO3)c(OC)c2c1OCO2 [II-7, 2,2′,5,5′-tetra-methoxy-3,4,3′,4′-bi-methylenedioxy-6,6′-dimethylbiphenyl]
IC50 [1, 9]: 16.2 ± 1.4 µM

COc1cc(C)c(OC)c2c1OCO2 [II-8, 4,7-dimethoxy-5-methyl-1,3-benzodioxole]
IC50 [1, 9]: 29.1 ± 4.4 µM

eburicol [Compound I-19]
EC50 (KB (human cancer cell)): > 20 µM | EC50 [2]: > 20 µM
